In ChEMBL document CHEMBL1134206 (Bioorg Med Chem Lett, 2001):

Assays:
[1] = organism: Rattus norvegicus; experiment: Neuronal protective effect of compound against ischemic brain damage in rat t-MCAO model; format: functional
[2] = molecular target: T1, 5-hydroxytryptamine receptor 1A (Rattus norvegicus, UniProt P19327); experiment: Binding affinity to 5-hydroxytryptamine 1A receptor of rat hippocampus with [3H]8-OH-DPAT as radioligand; format: tissue-based
T1 sequence (P19327 whole entry): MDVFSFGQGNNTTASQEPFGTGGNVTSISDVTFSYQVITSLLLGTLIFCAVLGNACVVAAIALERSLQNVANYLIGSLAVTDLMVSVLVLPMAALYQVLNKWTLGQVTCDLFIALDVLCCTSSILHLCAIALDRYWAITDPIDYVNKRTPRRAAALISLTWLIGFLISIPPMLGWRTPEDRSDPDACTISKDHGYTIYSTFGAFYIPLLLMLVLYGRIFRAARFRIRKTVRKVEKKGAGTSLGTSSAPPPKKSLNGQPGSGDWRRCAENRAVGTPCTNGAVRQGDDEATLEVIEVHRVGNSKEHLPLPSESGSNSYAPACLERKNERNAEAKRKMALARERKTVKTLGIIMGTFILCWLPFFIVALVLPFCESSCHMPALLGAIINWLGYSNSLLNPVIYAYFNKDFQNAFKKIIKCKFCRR

[3] = molecular target: D(2) dopamine receptor (Rattus norvegicus, UniProt P61169); experiment: Binding affinity to Dopamine receptor D2 in of rat striatum membrane with [3H]- raclopride as radioligand; format: cell membranes
[4] = molecular target: T2, 5-hydroxytryptamine receptor 1A (Rattus norvegicus) (UniProt P19327); experiment: Ratio of binding affinity to 5-HT 1A and D2 receptor
T2 sequence (whole entry): T1 sequence (P19327 whole entry)

D(2) dopamine receptor, sequence (P61169 whole entry): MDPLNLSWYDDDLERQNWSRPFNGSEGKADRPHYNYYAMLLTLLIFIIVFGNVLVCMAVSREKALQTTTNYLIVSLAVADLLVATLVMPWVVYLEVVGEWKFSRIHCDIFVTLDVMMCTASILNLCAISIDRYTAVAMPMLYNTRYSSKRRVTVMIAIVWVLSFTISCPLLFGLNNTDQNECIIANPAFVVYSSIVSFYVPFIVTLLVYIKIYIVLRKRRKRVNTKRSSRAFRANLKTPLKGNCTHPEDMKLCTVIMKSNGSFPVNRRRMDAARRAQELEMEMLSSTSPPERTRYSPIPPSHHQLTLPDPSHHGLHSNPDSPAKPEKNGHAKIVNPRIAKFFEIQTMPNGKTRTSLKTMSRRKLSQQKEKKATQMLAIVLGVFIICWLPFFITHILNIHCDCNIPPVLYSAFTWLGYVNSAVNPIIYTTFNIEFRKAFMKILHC

SMILES	IC50 [2] [nM]	IC50 [3] [nM]	Ratio [4]	Inhibition [1] [%]
Cc1c(N(C)C)c(=O)n(-c2ccccc2)n1C [AMINOPYRINE]	–	–	–	21
O=C1c2ccccc2OC=C(Cl)N1CCCCN1CC=C(c2ccccn2)CC1 [PICLOZOTAN]	–	84	179	63
O=C1c2ccccc2OC=C(Cl)N1CCCCN1CCN(c2ccccn2)CC1	–	–	66	–

Second part, led by results:

IC50 [2] [nM]	IC50 [3] [nM]	Ratio [4]	SMILES	Inhibition [1] [%]
18	–	–	O=C1c2ccccc2OC=CN1CCCCN1CCN(c2ncccn2)CC1	–
1.59	199	125	O=C1c2ccccc2OC=C(Cl)N1CCCCN1CCN(c2ncccn2)CC1	–
10.2	1100	108	CC1=COc2ccccc2C(=O)N1CCCCN1CCN(c2ncccn2)CC1	–
